Results from article PMC9274004, “Deciphering the Molecular Interaction Between the Adhesion G Protein-Coupled Receptor ADGRV1 and its PDZ-Containing Regulator PDZD7” (Frontiers in Molecular Biosciences, 2022).
Where no end group is shown, it is not given here.

Tests used:
PDZD7 N-PDZ1ext = target: T1, PDZD7 N-PDZ1ext (Mus musculus, UniProt E9Q9W7); experiment: NMR titration of N-PDZ1ext with ADGRV1 ligands; format: binding, murine; details: NMR titration, 25°C; SD over at least ten shifting peaks; read-out: Kd (Peptide)
T1 construct: including the N-terminus of the protein (N-PDZ1ext construct; M1-E192); GST (followed by TEV site) (N, cleaved yes); made in house; host or cells: E. coli BL21 DE3
T1 sequence (E9Q9W7 1-192): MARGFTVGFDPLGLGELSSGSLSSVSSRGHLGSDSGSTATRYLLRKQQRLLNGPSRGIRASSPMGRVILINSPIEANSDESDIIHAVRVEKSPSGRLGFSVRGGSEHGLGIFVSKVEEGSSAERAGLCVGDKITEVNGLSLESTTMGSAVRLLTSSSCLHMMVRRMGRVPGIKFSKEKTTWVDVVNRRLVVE
Description: (§1) All experiments were recorded at 25°C on a Bruker 800 MHz spectrometer equipped with a triple resonance ^1H{^13C/^15N} cryoprobe. The ^1H, ^15 N and ^13C backbone resonances assignment of PDZ1ext was carried out using 3D HNCA, HNCACB, HNCO, HNCOCA experiments (Tris HCl buffer adjusted to pH 6). The 2D ^1H-^15N HSQC spectra used to compare PDZ1, PDZ1ext, PDZ2 and PDZ2ext were recorded in Tris HCl pH 7.5 (50 mM). The 2D ^1H-^15N HSQC spectra used to compare PDZ1ext, PDZ2ext and P1P2 were recorded in Phosphate Buffer pH 6.5 (50 mM). Titration experiments of PDZ1 (WT), PDZ1ext (WT) and PDZ1ext (G103R) against ADGRV1pbm peptide were performed in Tris HCl pH 7.5 (50 mM). Averaged Chemical Shifts Perturbations (CSP) were calculated as: Δδavg = ((Δδ(^1H))^2+(Δδ(^15N)*0.159)^2)^½. For the determination of dissociation constants (Kd) of each peptide/PDZ interaction, averaged CSP δavg was plotted as a function of the molar ratio (peptide/PDZ) for several peaks and fitted using nonlinear regression and assuming a simple complex formation model.
The P1P2 tandem of PDZD7 is preceded by 80 residues with no predicted secondary or tertiary structure, but which could contribute to the interaction with ADGRV1. […] We first aimed at identifying potential secondary structures in both PDZD7 N-terminal region and ADGRV1 cytoplasmic domain. To this end, we produced both an extended PDZ1ext construct, including the N-terminus of the protein (N-PDZ1ext construct; M1-E192) and the whole ADGRV1 cytoplasmic domain of 152 residues.
On the overlay of PDZ1ext and N-PDZ1ext HSQC spectra, there is no significant chemical shift changes on PDZ1ext due to the presence of the N-terminal region (CSPs <0.04 ppm). […] We used the entire cytoplasmic domain of ADGRV1 as partner of PDZD7 in NMR and fluorescence titrations experiments. […] Finally, we measured Kd values in the few micromolar range between the tandem P1P2 and the whole cytoplasmic domain and the last 13 residues of ADGRV1 by fluorescence experiments.

PDZD7 PDZ1 (81-167) = target: T2, PDZD7 PDZ1 (81-167) (Mus musculus, UniProt E9Q9W7); experiment: NMR titration of PDZ1 with ADGRV1 ligands; format: binding, murine; details: NMR titration (1H-15N HSQC CSP), Tris HCl pH 7.5 (50 mM), 25°C; SD of Kd over at least ten shifting peaks
T2 construct: (Uniprot entry E9Q9W7-1); PDZ1 (81-167); GST (followed by TEV site) (N, cleaved yes); made in house; host or cells: E. coli BL21 DE3
Description: as §1, with “For the determination of dissociation constants (Kd) of each peptide/PDZ interaction, averaged CSP δavg was plotted as a function of the molar ratio (peptide/PDZ) for several peaks and fitted using nonlinear regression and assuming a simple complex formation model.” left out
We monitored the interaction between PDZD7 constructs and a peptide (ADGRV1pbm) corresponding to the last 13 residues of ADGRV1, encompassing its PBM (sequence VELRRIPIADTHL-COOH; PBM underlined). We measured apparent Kd values of our constructs towards ADGRV1pbm using several biophysical methods (NMR, fluorescence, MicroScale Thermophoresis (MST)) (Table 1; Supplementary Figure S3–S5). […]

## VELRRIPIADTHL [ADGRV1pbm]
PDZD7 N-PDZ1ext
  Kd: 270 ± 21 µM
PDZD7 PDZ1 (81-167)
  Kd: 1310 µM
